Test results from PubChem BioAssay (NCI).
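The compound was tested at five concentrations on cells cultured in 96-well plates, with a 48-hour exposure period. At the GI50, growth is halved. At the TGI there is no net growth.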

Legend:
Experiment in all cases: NCI-60 cell line screen, 48 h
K-562 leukemia = tested on: K-562 leukemia
SK-MEL-2 melanoma = tested on: SK-MEL-2 melanoma
PC-3 prostate = tested on: PC-3 prostate
SF-539 CNS = tested on: SF-539 CNS
HL-60(TB) leukemia = tested on: HL-60(TB) leukemia
OVCAR-8 ovarian = tested on: OVCAR-8 ovarian
OVCAR-5 ovarian = tested on: OVCAR-5 ovarian
UO-31 renal = tested on: UO-31 renal
786-0 renal = tested on: 786-0 renal
M14 melanoma = tested on: M14 melanoma

Row | SMILES | GI50 (K-562 leukemia) [µM] | TGI (K-562 leukemia) [µM] | GI50 (SK-MEL-2 melanoma) [µM] | TGI (SK-MEL-2 melanoma) [µM] | GI50 (PC-3 prostate) [µM] | TGI (PC-3 prostate) [µM] | GI50 (SF-539 CNS) [µM] | TGI (SF-539 CNS) [µM] | GI50 (HL-60(TB) leukemia) [µM] | TGI (HL-60(TB) leukemia) [µM] | GI50 (OVCAR-8 ovarian) [µM] | TGI (OVCAR-8 ovarian) [µM] | GI50 (OVCAR-5 ovarian) [µM] | TGI (OVCAR-5 ovarian) [µM] | GI50 (UO-31 renal) [µM] | TGI (UO-31 renal) [µM] | GI50 (786-0 renal) [µM] | TGI (786-0 renal) [µM] | GI50 (M14 melanoma) [µM] | TGI (M14 melanoma) [µM]
1 | O=C(CCCc1ccc(N(CCCl)CCCl)cc1)NCc1ccccc1 | 7.43 | 54.3 | 21.8 | 55 | 12.1 | 73.9 | 17.8 | 73.8 | 4.37 | 23.4 | 8.11 | > 100 | 33.1 | > 100 | 5.43 | 39.1 | 3.32 | 23.3 | 4.18 | 24.2
2 | O=C(NCc1cn(Cc2cccc(Oc3ccccc3)c2)nn1)c1cccnc1Nc1ccc(F)cc1 | > 100 | > 100 | 34.2 | > 100 | 20.4 | > 100 | 15.1 | > 100 | > 100 | > 100 | 7.44 | > 100 | > 100 | > 100 | 86.3 | > 100 | 23.2 | > 100 | 13.7 | > 100
3 | Cn1cc(C2=C(c3ccsc3)C(=O)NC2=O)c2ccccc21 | > 25 | > 25 | > 25 | > 25 | > 25 | > 25 | 24.2 | > 25 | > 25 | > 25 | > 25 | > 25 | > 25 | > 25 | 8.49 | > 25 | > 25 | > 25 | > 25 | > 25
4 | Cn1cc(-c2ccc3nc(-c4ccc(CC(=O)Nc5cc(C(C)(C)C)no5)cc4)cnc3c2)cn1 | 0.017 | > 3 | 0.0237 | 0.581 | 0.112 | > 3 | 0.0274 | > 3 | 0.735 | > 3 | 0.0548 | > 3 | 0.0828 | > 3 | 0.0521 | 0.269 | 0.0375 | > 3 | 0.0172 | > 3
5 | O=C(/C=C\c1ccc(O)c(O)c1)c1ccccc1O | 12.5 | 71.5 | 12 | 41.7 | 13.4 | 89.8 | 6.69 | 26.5 | 2.4 | 6.05 | 14.7 | 56.8 | 18 | 40.4 | 2.2 | 18 | 10.6 | 23.3 | 12.9 | 29.9
